Measurements from patent US20120172228A1, “ALCOHOL ALKOXYLATES AS ADJUVANTS FOR AGROCHEMICAL FORMULATIONS” (SYNGENTA CROP PROTECTION, LLC, priority 2009, published 2012).

What was measured:
[1] = test system: lolium perenne (LOLPE), alopecurius myosuirides (ALOMY), setaria viridis (SETVI), avena fatua (AVEFA); experiment: Adjuvant with herbicide pinoxaden, track sprayer, mean across four weed species; type: in vivo; conditions: pinoxaden 7.5 or 15 g/ha, 14 and 21 days
[2] = test system: digitaria sanguinalis (DIGSA); experiment: Adjuvant with herbicide nicosulfuron on DIGSA; type: in vivo; conditions: nicosulfuron 30 or 60 g/ha; adjuvants 0.2% of spray water; 14 and 21 days after application
Experimental: In this example Sample 13 from Table 1 was compared to the oil adjuvant blend Turbocharge™. The herbicide fomesafen was applied to the weed species xanthium strumarium (XANST), setaria viridis (SETVI), abutilon theophrasti (ABUTH), and chenopodium album (CHEAL) at rates of 60 or 120 grams per hectare, using a laboratory track sprayer. Each experiment was replicated four times and the percentage damage to the weeds was assessed visually at time periods of 7, 14 and 21 days after application. Each adjuvant was applied at a rate of 0.5% of the volume of the spray water. Four effects were evaluated: pesticide rate (2 levels), adjuvant type (two levels), weed species (four levels) and days after application (three levels). […] The effect of each adjuvant was pulled out from the model and the least significant differences evaluated using a Student's t method. […]
In this example the butylene oxide adjuvant Sample 13 of Table 1 was compared to the commercial oil adjuvant blend Atplus™411F. […] Each experiment was replicated four times and the percentage damage to the weeds was assessed visually at time periods of 14 and 21 days after application. […]
In this example the responses of the butylene oxide adjuvants 13, 17, 19, 21, 22 and 23 of Table 1 were measured at an application rate of 0.2% of the volume of the spray solution used. […]

What does the source list for `CCCCC(CC)COP(=O)(OCC(CC)CCCC)OCC(CC)CCCC` (stereo not drawn) [TEHP, tris 2-ethylhexyl phosphate]?
Mean kill (%) ([1]; Sample 28 0.2%, TEHP 0.5%): 92.6%; mean efficacy (percentage damage to the weeds), All weeds ([1]; butylene oxide adjuvants 0.2%, TEHP 0.5% v/v): 75.63; A %; mean efficacy (percentage damage to the weeds), DIGSA [2]: 69.17; A %
